From patent publication US20060278218A1, “Non-invasive restrained whole body plethysmography for measurement of airway function in conscious mice” (priority 2005, published 2006)
Where “and” joins values, the source holds several entries; their conditions need not be identical. Equal values may be shown once. Marks after values point to notes of the source that are not given here.

What was measured:
Type in all cases: in vivo, mouse
conscious mice [1] = assay: Methacholine aerosol challenge in conscious mice, restrained whole body plethysmography (RWBP); conditions: for sRaw-RWBP ED175: mean; for average sRaw: one C57BL/6 mouse
Text: The dynamic properties of the plethysmograph were studied by varying pressures in the chamber (John, J., B. Drefeldt, et al. (1994). “Dynamic properties of body plethysmographs and effects on physiological parameters.” J Appl Physiol 77(1): 152-9. (hereinafter John, et al.), incorporated herein by reference). A leak (3.2 sec to 36% peak pressure) was created by a Luer connector mounted in the wall of the box, which was attached to a length of tubing, a stopcock and needle (22 g, 2 cm). The leak resistance was measured to be 5.37 cm H2O/L/sec and inertance 0.029 s^2/mL. A step pressure created by (a) hammering gently the plunger of a syringe loaded to an expected volume (0.02 mL), and (b) balloon burst both peaked between 19-21 msec, with a thermal time constant (described by a single compartment) of 0.95 sec. Amplitude was examined as a function of input frequency using digitally controlled square and sinusoidal flows delivered with a piston-driven mouse ventilator (flexiVent, Scireq Corp, Montreal, Canada). Box pressure amplitude remained within 3% of the delivered volume (0.1 mL) from 1-10 Hz, and within 0.075% between 2 and 5 Hz, the range most relevant to breathing in conscious mice. Therefore the conditions were adiabatic across these frequencies. Time shifts between flow, delivered via the pneumotachograph within the box, and peak box pressure averaged less than 3 msec (range 1-6 msec) from 0.5-20 Hz generated using a broadband input generator (flexiVent, Scireq Corp). Pressure in the plethysmographic chamber was sampled differential pressure transducer 20 (TRD 5700, Buxco Electronics, Wilmington, N.C.) referenced to the atmospheric reference chamber 18 The pneumotachograph 52 (8431 Series, Hans Rudolph, Kansas City, Mo.) heated to 38-39° C. measured flow and flow-derived parameters. Data was sampled at 2500 Hz per channel using commercial hardware (Max1420 Buxco Electronics, PCI 6024E, National Instruments) and software (Biosystem XA version 2.9.4, Buxco Electronics, Inc). The pneumotachograph was calibrated by integration of the flow, injected as a known volume (0.5 mL). Box volume was calibrated by rapid injection of a known volume (0.1 mL) into the chamber between each mouse, and checked repeatedly using injections of varying volumes and quasi-sinusoidal inputs. Bias flow (0.5 L/min) was employed between recordings, and the box vented fully between methacholine challenges.
FIGS. 9A-9D are box volume-flow plots for the experiments performed using an RWBP according to the invention. Primary waveforms (box volume, flow) are reviewed and period of peak responses based on EF50 are identified. These occurred regularly between 1.5-2.5 minutes after exposure to methacholine. FIGS. 9A-9D have a stripchart for pneumotachograph flow and plethysmographic volume. Below the stripcharts are corresponding X-Y plots of flow (Y-axis) and box volume shift (X-axis). A slope (θ) of the box volume-flow plot was measured using a protractor (accurate to 0.5 degrees) on the straightest possible segment between −1 to 1 mL/sec. Angles are measured at the transition from expiration to inspiration to minimize the contribution of heating and humidification to the box volume signal (see Agrawal K P). Gains were set to produce angles (tangents) between 40 and 75 degrees. Breaths with evidence of laryngeal braking are avoided. Specific airway resistance (sRaw) is computed from the plots as follows: sRaw=(1/tan θ)*(Patm−PH2O)*Cf*(Vbox−bwt mouse)/Vbox, Equation 1: where Patm is atmospheric pressure, PH2O is water vapor pressure, Cf is a scaling factor for X and Y axes, Vbox is volume of the outer chamber, and bwt mouse is the weight of the mouse in units of grams.
Challenges were conducted at the same time of day (morning or afternoon) for each mouse. Ambient temperatures in the laboratory ranged from 21-23° C. and humidity ranged from 25-45%. Baseline recordings were obtained after 2 min acclimation to the chamber. […]

[2] = test system: anesthetized, tracheotomized mice; assay: Methacholine challenge in anesthetized mice using forced oscillation technique (FOT); conditions: for Raw ED175: provocative concentration increasing Raw-FOT to 175% baseline, mean
Procedure: The methods for FOT have been previously described in Tomioka, S., J. H. Bates, et al. (2002). “Airway and tissue mechanics in a murine model of asthma: alveolar capsule vs. forced oscillations.” J Appl Physiol 93(1): 263-70. (hereinafter Tomioka, et al.), incorporated herein by reference. Mice were anesthetized with ketamine (50 mg/kg) and xylazine (5 mg/kg) (Butler Co, Dublin, Ohio) intra-peritoneally, and a tracheostomy performed with a 19 g cannula (Becton Dickinson and Company Franklin Lakes, N.Y.). Mice were paralyzed with pancuronium (1 mg/ml, Baxter Healthcare Corp. Irvine, Calif.). Supplemental xylazine and ketamine (½ doses) were provided every ½ hour. Ventilation was set at frequency of 200 BPM, VT 0.3 ml, positive end-expiratory pressure (PEEP) 3.0 cm H20, and oxygen was supplemented throughout. Repeated measurements were performed with a commercial data acquisition system for input impedance between 1-20 Hz (Quick Prime 3 analyzer, FlexiVent System, SCIREQ Corp, Montreal, Quebec). A constant phase model (Gomes, R. F., X. Shen, et al. (2000). “Comparative respiratory system mechanics in rodents.” J Appl Physiol 89(3): 908-16 (hereinafter Gomes, et al.)., incorporated herein by reference) was employed to obtain airway resistance Raw, tissue resistance coefficient Gti, and tissue elastance coefficient Hti.
Aerosols were delivered directly into the tracheal cannula during lung inflation during mechanical ventilation (flexiVent, Scireq Corp, Montreal, Quebec). Ten second nebulization periods were used, followed immediately by a series (8-15) of measurements. Prior to each measurement of lung mechanics, the lung was inflated to total lung capacity (TLC) (30 cm H2O airway pressure). Forced oscillations during apnea (3 seconds in duration) were applied every 17 seconds for 5 minutes. Dosage ranges were pre-determined in pilot studies to evoke between 10 and >75% increase in airway resistance (Raw). Methacholine in C57 mice was delivered at 0 (saline), 4, 8, and 16 mg/mL, and in AJ we used 0, 2, 4, and 8 mg/mL. The concentration of methacholine that provoked an increase in Raw-FOT to 175% baseline (ED 175) was determined by log-linear interpolation as described above.

conscious mice [3] = assay: Methacholine aerosol challenge in conscious mice, double chamber plethysmography (DCP); conditions: BALBc (pre-OVA) mice, n=8; provocative concentration increasing sRaw to 175% post-saline value; mean
Procedure: The double chamber plethysmograph was purchased from a commercial source (PLY3351, Buxco Electronics Inc, Wilmington, N.C.). The techniques for measurement with this technique have been described previously (DeLorme, et al. and Flandre, et al.). The flow for each chamber (nasal and thoracic) of the DCP was calibrated separately by rapid injection of a known volume (0.5 mL) into the chamber; volume was matched by the integration of flow. The accuracy of calibration was checked before each test. The phase lag between the chambers was negligible (<0.01 msec up to 10 Hz). For DCP, mice were loaded into the rear of the thoracic chamber and pushed forward until the head protruded through a hole in a latex neck seal provided with the equipment. […] Computation of sRaw measured with DCP (hereinafter sRaw-DCP) followed protocols established by Pennock, et al. and later applied to mice by Flandre, et al, whereby the time lag (dT) between the thoracic and nasal flow at zero crossing (during transition between inspiration and expiration) was utilized as follows: sRaw−DCP=(Ti+Te)/(2π)×(Patm−47)×1.36 2×π×dT/(Ti+Te), Equation 2: where Ti and Te equal inspiratory and expiratory time (sec) and Patm atmospheric pressure (cm H2O). The peak dT was identified and 10 sequential breaths free from movement artifacts were measured for that period. […]

CC(=O)OC(C)C[N+](C)(C)C (centres unmarked) [methacholine]
sRaw-RWBP ED175 (conscious mice [1]; AJ mice, n=18, provocative concentration increasing sRaw to 175% post-saline value): 4.49^a,b mg/mL
sRaw-RWBP ED175 (conscious mice [1]; BALBc (no OVA) mice, n=18, provocative concentration increasing sRaw to 175% post-saline value): 10.9^a mg/mL
sRaw-RWBP ED175 (conscious mice [1]; BALBc (post-OVA) mice, n=8, 48 hrs following allergen challenge in sensitized group): 5.0 mg/mL and 5.0^a,c mg/mL
sRaw-RWBP ED175 (conscious mice [1]; BALBc (pre-OVA) mice, n=8, prior to sensitization and aerosol exposure to ovalbumin): 9.2 mg/mL and 9.2^ mg/mL
sRaw-RWBP ED175 (conscious mice [1]; C57 mice, n=18, provocative concentration increasing sRaw to 175% post-saline value): 40.5^b mg/mL
change in tidal volume (conscious mice [1]; conscious C57, AJ and BALBc mice, any strain (FIG. 10C)): no change
change in sRaw-RWBP (conscious mice [1]; conscious C57, AJ and BALBc mice, dose response (FIG. 10A)): significant dose-dependent increase
change in respiratory frequency (conscious mice [1]; conscious C57, AJ and BALBc mice, dose response (FIG. 10B)): significant decrease
average sRaw (conscious mice [1]; methacholine aerosol dose 10 mg/mL (FIG. 9B)): 0.75 cm·s
average sRaw (conscious mice [1]; methacholine aerosol dose 50 mg/mL (FIG. 9C)): 0.86 cm·s
average sRaw (conscious mice [1]; methacholine aerosol dose 100 mg/mL (FIG. 9D)): 1.61 cm·s
period of peak responses based on EF50 after exposure (conscious mice [1]; time after exposure to methacholine): 1.5 to 2.5 min
Raw ED175 ([2]; AJ mice, n=18): 2.3^a mg/mL
Raw ED175 ([2]; BALBc (pre-OVA) mice): 9.48 mg/mL
Raw ED175 ([2]; C57 mice, n=18): 8.3 mg/mL
change in Raw ([2]; anesthetized, tracheotomized C57, AJ and BALBc mice, all 3 strains (FIG. 11)): dose-dependent increase
sRaw-DCP ED175 (conscious mice [3]): 7.1^a mg/mL
